# Laboratory results as given in patent US20250197428A1, “INHIBITORS OF KIF18A AND USES THEREOF” (ACCENT THERAPEUTICS, INC., priority 2022, published 2025).
# Read-outs that look alike come from different tables or passages of the source.
# How the values were obtained:
# [1] = biological target: KIF18A (Homo sapiens (Human), UniProt Q8NI77); test: KIF18A Biochemical Assay (ATPase, ADP-Glo)
# [2] = system: OVCAR-3 cells; test: In vitro anti-proliferative activity assay in cancer cell line OVCAR-3 (CellTiter-Glo, 4- or 7-day); type: cell-based; conditions: Homo sapiens, read-out: OVCAR-3 cellular antiproliferation assay IC50
# Sequence of KIF18A (Q8NI77 1-367): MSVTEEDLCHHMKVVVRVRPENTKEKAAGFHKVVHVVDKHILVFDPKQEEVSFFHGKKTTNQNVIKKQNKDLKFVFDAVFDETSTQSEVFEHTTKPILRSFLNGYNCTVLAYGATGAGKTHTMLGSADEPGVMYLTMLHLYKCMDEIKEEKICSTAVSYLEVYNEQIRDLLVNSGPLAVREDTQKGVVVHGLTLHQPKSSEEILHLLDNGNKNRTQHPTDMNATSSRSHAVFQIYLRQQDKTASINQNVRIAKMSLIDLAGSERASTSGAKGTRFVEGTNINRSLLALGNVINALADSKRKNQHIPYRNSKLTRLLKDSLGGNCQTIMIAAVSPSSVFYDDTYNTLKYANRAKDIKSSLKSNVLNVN
# Sequence of KIF18A (P02550 whole entry partner): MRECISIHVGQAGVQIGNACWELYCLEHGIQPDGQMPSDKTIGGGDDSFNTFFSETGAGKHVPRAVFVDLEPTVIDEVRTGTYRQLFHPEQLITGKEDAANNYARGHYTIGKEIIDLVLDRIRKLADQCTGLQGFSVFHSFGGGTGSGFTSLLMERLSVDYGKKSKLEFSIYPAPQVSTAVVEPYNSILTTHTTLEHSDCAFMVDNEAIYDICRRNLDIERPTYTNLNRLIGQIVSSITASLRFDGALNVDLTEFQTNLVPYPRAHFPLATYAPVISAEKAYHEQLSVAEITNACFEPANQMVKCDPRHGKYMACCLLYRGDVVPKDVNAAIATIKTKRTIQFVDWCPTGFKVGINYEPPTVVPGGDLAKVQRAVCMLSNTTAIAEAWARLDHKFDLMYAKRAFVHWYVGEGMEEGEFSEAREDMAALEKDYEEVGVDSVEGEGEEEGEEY
# Sequence of KIF18A (P02554 whole entry partner): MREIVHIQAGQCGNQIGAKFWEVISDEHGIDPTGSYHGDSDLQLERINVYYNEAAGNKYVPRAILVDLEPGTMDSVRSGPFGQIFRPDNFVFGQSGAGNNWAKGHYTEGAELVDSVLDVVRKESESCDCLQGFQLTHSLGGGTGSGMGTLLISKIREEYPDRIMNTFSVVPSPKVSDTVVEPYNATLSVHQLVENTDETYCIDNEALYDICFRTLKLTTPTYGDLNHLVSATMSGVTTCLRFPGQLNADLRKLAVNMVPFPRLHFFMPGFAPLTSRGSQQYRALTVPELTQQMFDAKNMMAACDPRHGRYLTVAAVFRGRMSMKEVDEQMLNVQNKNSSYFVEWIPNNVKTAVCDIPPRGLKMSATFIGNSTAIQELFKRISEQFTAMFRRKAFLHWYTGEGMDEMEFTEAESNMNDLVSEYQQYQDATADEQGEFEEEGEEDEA
SMILES,IC50 [1] [nM],"IC50 ([2]; OVCAR-3, 168 h, 7-day assay) [nM]","IC50 ([2]; OVCAR-3, 96 h, 4-day assay) [nM]"
C[Si]1(C)CCN(c2cc(S(=O)(=O)CCO)ccc2C(=O)Nc2cccc(OC[C@@H](O)C(F)(F)F)n2)CC1 [Example 129],< 100,100 to 500,–
Cc1cc(NC(=O)c2ccc(NS(=O)(=O)CCO)cc2N2CC[C@@]3(C(F)F)C[C@H]3C2)nc(N2CCC(F)(F)CC2)n1 [Example 59],< 100,100 to 500,–
Cc1cc(NC(=O)c2ccc(NS(=O)(=O)CCO)cc2N2CC[C@]3(C(F)F)C[C@@H]3C2)nc(OC[C@@H](O)C(F)(F)F)n1 [Example 73],> 1000,> 1000,–
Cc1cc(NC(=O)c2ccc(NS(=O)(=O)NCCO)cc2N2CC[C@]3(C)C[C@@H]3C2)nc(N2CCC(F)(F)CC2)n1 [Example 43],< 100,–,> 1000
Cc1cc(NC(=O)c2ccc(NS(=O)(=O)C(C)CO)cc2N2CC[Si](C)(C)CC2)nc(N2CC(F)(F)C2)c1 (stereo not shown) [Example 114],< 100,< 100,–
Cc1cc(NC(=O)c2ccc(S(=O)(=O)NCCO)cc2N2CC[C@]3(C)C[C@@H]3C2)nc(N2CCC(F)(F)CC2)n1 [Example 52],< 100,100 to 500,–
"COC[C@]12CCN(c3cc(NS(=O)(=O)CCO)ccc3C(=O)Nc3cc(C)nc(N4CCC(F)(F)CC4)n3)C[C@H]1C2 (single isomer, unassigned) [Example 49a]",< 100,100 to 500,–
Cc1cc(NC(=O)c2ccc(NS(=O)(=O)CCO)cc2N2CC[C@]3(C(F)F)C[C@@H]3C2)nc(OC[C@H](O)C(F)(F)F)n1 [Example 67],> 1000,> 1000,–
C[Si]1(C)CCN(c2cc(NS(=O)(=O)NCCO)ccc2C(=O)Nc2cccc(OC[C@H](O)C(F)(F)F)n2)CC1 [Example 126],< 100,100 to 500,–
C[Si]1(C)CCN(c2cc(S(=O)(=O)NCCO)ccc2C(=O)Nc2cccc(OCCC(F)(F)F)n2)CC1 [Example 99],< 100,< 100,–
Cc1cc(NC(=O)c2ccc(S(=O)(=O)NCCO)cc2N2CC[C@@]3(C)C[C@H]3C2)nc(N2CCC(F)(F)CC2)n1 [Example 53],< 100,100 to 500,–
O=C(Nc1ccnc(C2CCC(F)(F)CC2)n1)c1ccc(NS(=O)(=O)CCO)cc1N1CC[C@@]2(C(F)F)C[C@H]2C1 [Example 76],< 100,100 to 500,–
C[Si]1(C)CCN(c2cc(NS(=O)(=O)CCO)ccc2C(=O)Nc2cccc(OC[C@H](O)C(F)(F)F)n2)CC1 [Example 122],< 100,< 100,–
O=C(Nc1cccc(N2CCC(F)(F)CC2)n1)c1ccc(NS(=O)(=O)CCO)cc1N1CC[C@]2(C(F)F)C[C@@H]2C1 [Example 64],< 100,< 100,–
C[Si]1(C)CCN(c2cc(NS(=O)(=O)CCO)c(F)cc2C(=O)Nc2ccnc(N3CCC(F)(F)CC3)n2)CC1 [Example 13],< 100,–,500 to 1000
Cc1cc(NC(=O)c2c(F)cc(NS(=O)(=O)CCO)c(F)c2N2CC[Si](C)(C)CC2)nc(N2CCC(F)(F)CC2)n1 [Example 116],500 to 1000,> 1000,–
"C[Si]1(C)CCN(c2cc(NS(=O)(=O)CCO)ccc2C(=O)Nc2cccc(N3CCC(F)(F)CC3)n2)CC1 [Example 3, N-(6-(4,4-difluoropiperidin-1-yl)pyridin-2-yl)-2-(4,4-dimethyl-1,4-azasilinan-1-yl)-4-((2-hydroxyethyl)sulfonamido)benzamide]",< 100,–,< 100
CO[C@]12CCN(c3cc(NS(=O)(=O)CCO)ccc3C(=O)Nc3cc(C)nc(N4CCC(F)(F)CC4)n3)C[C@H]1C2 [Example 81],< 100,500 to 1000,–
Cc1cc(NC(=O)c2ccc(NS(=O)(=O)NCCO)cc2N2CC[C@@]3(C(F)F)C[C@H]3C2)nc(N2CCC(F)(F)CC2)n1 [Example 57],100 to 500,> 1000,–
Cc1cc(NC(=O)c2ccc(NS(C)(=O)=O)cc2N2CC[C@@]3(C)C[C@H]3C2)nc(N2CCC(F)(F)CC2)n1 [Example 32],< 100,–,> 1000
